From patent US8846873B2, “Antibodies directed to GPNMB and uses thereof” (Celldex Therapeutics, Inc., priority 2004, dated 2014) come the findings set out here.

Entries after “also recorded” stand apart in the source; their conditions may differ.

Data set [1] deals with SK-MEL-2 melanoma xenografts. The experiment in a line: Human SK-MEL-2 melanoma xenograft in athymic mice. Format: in vivo. The procedure: Test Animals: Five- to 6-week old athymic mice (CD-1 nu/nu females), used for human tumor xenografts, were obtained from Harlan Laboratories (Indianapolis, Ind.). Animals were housed in specific pathogen-free conditions, according to the guidelines of the Association for Assessment and Accreditation of Laboratory Animal Care International (AAALAC International). Test animals were provided pelleted food and water ad libitum and kept in a room with conditioned ventilation (HVAC), temperature (22°±2° C.), relative humidity (55%±15%), and photoperiod (12 hr). All studies were carried out with approved institutional animal care and use protocols.
Human Melanoma Xenograft Models. The tumor inhibitory activity of the CR011-MMAE immunoconjugate was measured in an anti-tumor xenograft model using athymic mice, according to published methods (see Geran et al., Cancer Chemother. Rep. 3:1-104 (1972)). […] When tumors became established (10-20 days), the animals were pair-matched into groups (n=6 mice/group), and treatment was administered by intravenous injection (tail vein).
The SK-MEL-2 human melanoma (ATCC #HTB-68) was derived from a metastatic site (skin of thigh) of a person with malignant melanoma, and the SK-MEL-5 human melanoma (ATCC #HTB-70) was derived from a metastatic site (axillary lymph node) of a person with malignant melanoma (see Fogh et al., J. Natl. Cancer Inst. 59: 221-226 (1977)). Both cell lines were obtained from the American Type Culture Collection.
The effects of treatment were monitored by repetitive tumor measurements across 2 diameters with Vernier calipers; tumor size (in mg) was calculated using a standard formula, (W^2×L)/2, assuming a specific gravity of 1.0. Tumor size and body weights were assessed twice weekly. Mice were examined daily, however, and moribund animals were humanely euthanized if clinical indications of excessive pain or distress were noted (i.e., prostration, hunched posture, paralysis/paresis, distended abdomen, ulcerations, abscesses, seizures, and/or hemorrhages). Animals with tumors exceeding 2,000 mg were removed from the study and euthanized humanely.
No apparent or statistically significant anti-tumor effects were observed. […] In preliminary studies, tumor regression was complete and was not followed by regrowth of the tumor despite lengthy observation periods (up to 200 days).
For orientation: A xenograft is tissue or cells of one species grown in another, often human tumour cells in immunodeficient mice.

A further data set deals with HEK293 cells. The experiment in a line: Clonogenic assay, empty vector or GPNMB transfected cells. Format: cell-based, human. The settings on record: 96 hours treatment. How it is done: HEK293 cells are transfected with empty vector (vector) or GPNMB-containing plasmid (GPNMB) as described in Materials and Methods. A. Cell lysates are prepared from the transfected HEK293 cells and the expression of GPNMB (upper panel) or actin (lower panel) is determined by immunoblotting. Lane 1: Empty vector transfectants. Lane 2: GPNMB transfectants. B. Flow cytometry analysis of GPNMB expression on empty vector or GPNMB transfected cells. C. […] After a clonogenic assay, the surviving fraction is normalized to the untreated control and expressed as a percentage of the control using GraphPad Prism graphing software. Each treatment is performed in triplicate. A representative graph from two independent experiments is shown.
Cells were plated in 96-well plates and allowed to recover overnight. […] The cells were then transferred into 6-well plates and allowed to form colonies. Colonies were stained with Giemsa stain (Sigma) and counted. The surviving cell fractions were calculated based upon the ratio of the treated sample and the untreated control. The results were expressed as a percentage of control using GraphPad Prism Version 4 software.

For the substance “CR011-vcMMAE: anti-GPNMB antibody 1.15.1 coupled to monomethylauristatin E via protease-sensitive valine-citrulline linker”, the complete regressors in data set [1] (2 mg/kg cumulative dose, all dosing intervals) amounted to 13%. For the same substance, the “proportions of complete regressions (animals)” value in data set [1] (8 mg/kg cumulative dose, 5 groups of 6 animals) is reported as 28/30. Moreover, the complete regressions in data set [1] (8 mg/kg cumulative dose, all dosing intervals) is 93%; in data set [1] (cumulative dose of 32 mg/kg, all dosing intervals), 100%. In addition, the tumor response result in data set [1] (CR011-ONC-1, CR011-vcMMAE 5 mg/kg/treatment i.v. q4d x4, components at doses identical to those in the immunoconjugate) is “Tumor growth inhibition and complete regression; also recorded: no discernible tumor was detected in all 6 of the test animals”. Besides, the “abnormal treatment effects on gross examination” value in data set [1] (Study N-386) is “no abnormal treatment effects”. In addition, the “time after treatment commenced to significant treatment effects” value in data set [1] (Study N-386, 20, 10, 5 or 2.5 mg/kg i.v. q4d x4, P≦0.014) is 4 days. For the same substance, in data set [1] (Study N-386, i.v., CR011-vcMMAE 20, 10, 5 or 2.5 mg/kg q4d x4, vinblastine […] q4d x4), the anti-tumor effect entry is reported as “tumors rapidly diminished in size for the majority of the test animals”. Moreover, the “effects of treatment on body weight or weight gain” value in data set [1] (Study N-386, twice weekly body weight) is given as “no observable or statistically significant effects”. Besides, the “schedule dependency of anti-tumor effects” value in data set [1] (dosing intervals 0, 1, 4, 8, 16 days) was “not schedule-dependent”. For the same substance, the “re-growth of tumors that regressed completely” value in data set [1] (observation period >200 days) is reported as “did not re-grow”. For the same substance, the “sensitivity to growth-inhibition, GPNMB-expressing vs control HEK293 cells” value with HEK293 cells is reported as “more sensitive”.
